In general, IC50 refers to the concentration that gives 50% inhibition.

Where two headings read alike, the source gives them in different places. Bounds are passed on as bounds.

The text below walks through data of PMC6378654 (Journal of Medicinal Chemistry, 2019).

For series [1], the system named is human proteasome subunit β2c. Description: Competitive ABPP in Raji cell lysates. In kind it is biochemical.
Series [2] has as its target T1, human proteasome subunit β2c (Homo sapiens, UniProt Q99436).
T1 sequence (Q99436 44-277): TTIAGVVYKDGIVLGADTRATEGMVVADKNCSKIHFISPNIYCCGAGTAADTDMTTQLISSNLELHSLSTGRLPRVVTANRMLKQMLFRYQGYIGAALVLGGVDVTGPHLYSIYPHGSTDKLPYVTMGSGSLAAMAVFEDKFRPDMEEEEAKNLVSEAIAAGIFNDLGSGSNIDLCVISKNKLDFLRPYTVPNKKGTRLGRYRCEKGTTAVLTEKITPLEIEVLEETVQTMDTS
Description: Competitive ABPP in Raji cell lysates. The conditions noted are these: for IC50: read-out: Apparent IC50 β2c. The class given is biochemical.

The next series has as its target T2, β2i (Homo sapiens, UniProt P40306).
T2 sequence (P40306 40-273): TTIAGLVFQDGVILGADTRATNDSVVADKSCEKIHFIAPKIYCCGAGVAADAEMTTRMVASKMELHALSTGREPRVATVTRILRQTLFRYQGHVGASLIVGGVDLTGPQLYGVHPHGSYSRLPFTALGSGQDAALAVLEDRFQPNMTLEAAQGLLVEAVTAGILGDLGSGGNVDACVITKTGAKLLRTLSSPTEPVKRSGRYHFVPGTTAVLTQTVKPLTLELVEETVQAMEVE
Description: ABPP assay with probe 97 in Raji cell lysates. In kind it is biochemical. The conditions noted are these: for labeling of β2i by probe 97 after preincubation with inhibitor: LU-002i at 3 μM, LU-002c at high concentrations, Figure 4B.

A short description of series [3]: Solubility in aqueous solutions. The class given is physicochemical. The conditions noted are these: stated in words.
Series [4] deals with T3, human proteasome subunit β2i (Homo sapiens, UniProt P40306).
T3 sequence (P40306 40-273): T2 sequence (P40306 40-273)
Nature of the series: Competitive ABPP in Raji cell lysates. The class given is biochemical. The conditions noted are these: LU-002i 3 μM, LU-002c 0.3 μM, LU-102 1 μM, Figure 4B.

Consider `COC[C@H](NC(=O)[C@H](CC(C)C)NC(=O)c1cnc(C)s1)C(=O)N[C@H](/C=C/S(C)(=O)=O)Cc1ccc(CN)cc1` [Compound 20], for which the “selectivity for β2c over β2i” value in series [1] (Raji cell extracts, wider range of concentrations (Table 2)) is at least 27 fold; in series [1] (initial screening (Table 1)), 14 fold. As for `COc1ccc(C[C@H](NC(=O)[C@H](C)NC(=O)CN2CCOCC2)C(=O)N[C@@H](CCC2CCCCC2)C(=O)[C@@]2(C)CO2)cc1` [Compound 39, Morp-Ala-Tyr(Me)-HomoCha-EK], the IC50 in series [2] (Raji cell lysates, wider range of final concentrations, Table 5) was 2.5 µM.

Turning to `CC(C)C[C@H](NC(=O)[C@H](Cc1ccccc1)N=[N+]=[N-])C(=O)N[C@@H](CC(C)C)C(=O)N[C@H](/C=C/S(C)(=O)=O)Cc1ccc(CN)cc1` [Compound 1, reference compound], on β2i, the “labeling of β2i by probe 97 after preincubation with inhibitor” value was “completely abolished”. In the case of `COc1ccc(C[C@H](NC(=O)[C@H](C)NC(=O)CN2CCOCC2)C(=O)N[C@@H](CC2CCCC3CCCCC32)C(=O)[C@@]2(C)CO2)cc1` (stereo partly shown) [Compound 5], the “solubility in aqueous solutions” value in series [3] is reported as “poorly soluble”. As to `COc1ccc(C[C@H](NC(=O)[C@H](C)NC(=O)CN2CCOCC2)C(=O)N[C@@H](C[C@@H]2CCCc3ccccc32)C(=O)[C@@]2(C)CO2)cc1` [Compound 71, Morp-Ala-Tyr(Me)-1-(S)-TetraNal-EK], the IC50 in series [2] (Raji cell lysates, Table 6) was over 100 µM.

For the molecule `Cc1ncc(C(=O)N[C@@H](CC2CCCCC2)C(=O)N[C@@H](CC2CCCCC2)C(=O)N[C@H](/C=C/S(C)(=O)=O)Cc2ccc(CN)cc2)s1` [Compound 36], the “selectivity for β2c over β2i” value in series [1] (initial screening (Table 1)) was found to be 10.5 fold. Regarding `COc1ccc(C[C@H](NC(=O)[C@H](C)NC(=O)CN2CCOCC2)C(=O)N[C@@H](C[C@@H]2CCCC3CCCCC32)C(=O)[C@@]2(C)CO2)cc1` (stereo partly shown) [Compound 77, Morp-Ala-Tyr(Me)-1-DecAla-EK], the IC50 in series [2] (Raji cell lysates, Table 6) turned out to be 28 µM.

For `CC(C)C[C@H](NC(=O)c1cnccn1)C(=O)N[C@@H](CC(C)C)C(=O)N[C@H](/C=C/S(C)(=O)=O)Cc1ccc(CN)cc1` [Compound 7], in series [2] (initial screening), the “decreased potency for β2c compared to LU-102” value came to 23 fold. As to `COc1ccc(C[C@H](NC(=O)[C@H](C)NC(=O)CN2CCOCC2)C(=O)N[C@@H](C[C@H]2CCC[C@@H]3CCCC[C@@H]32)C(=O)[C@@]2(C)CO2)cc1` [Compound 86, Morp-Ala-Tyr(Me)-1-DecAla-EK], the IC50 in series [2] (Raji cell lysates, Table 6) is over 100 µM. Same read-out and setting: with `COc1ccc(C[C@H](NC(=O)[C@H](C)NC(=O)CN2CCOCC2)C(=O)N[C@@H](C[C@H]2CCCC3CCCCC32)C(=O)[C@@]2(C)CO2)cc1` (stereo partly shown) [Compound 74, Morp-Ala-Tyr(Me)-1-DecAla-EK] the figure was over 100 µM. `CC1=CC(C)=N/C1=C(/CCCCc1cn(CCOc2ccc(C[C@H](NC(=O)[C@H](C)NC(=O)CN3CCOCC3)C(=O)N[C@@H](CC3CCCC4CCCCC43)C(=O)[C@@]3(C)CO3)cc2)nn1)c1c(C)cc(C)n1B(F)F` (stereo partly shown) [Compound 97, Morp-Ala-Tyr(O–C2H4-BODIPY(FL))-1-DecAla-EK]: on β2i (final concentration of 3 μM, Figure 4A), the “β2i labeling by ABP 97” value was “selective”. Consider `COc1ccc(C[C@H](NC(=O)[C@H](C)NC(=O)CN2CCOCC2)C(=O)N[C@@H](C[C@H]2CCCc3ccccc32)C(=O)[C@@]2(C)CO2)cc1` [Compound 68, Morp-Ala-Tyr(Me)-1-(R)-TetraNal-EK], for which, in series [2] (Raji cell lysates, Table 6), the IC50 is over 100 µM. Take `CC(C)C[C@H](NC(=O)[C@H](Cc1ccccc1)N=[N+]=[N-])C(=O)N[C@@H](C)C(=O)N[C@H](/C=C/S(C)(=O)=O)Cc1ccc(CN)cc1` [Compound 4]: the “labeling of β2i by probe 97 after preincubation with inhibitor” value on β2i was “partially reduced”. In addition, in series [4], the “β2i labeling by the three-probe mixture after inhibitor treatment” value is on record as “partially inhibited”. Also, the “β2c labeling by the three-probe mixture after inhibitor treatment” value in series [2] (Raji cell lysates, LU-002c 0.3 μM, LU-102 1 μM, Figure 4B) is “completely prevented”.
